Measurements from US20250188085A1, “COMPOSITIONS AND METHODS FOR INHIBITION OF RAS” (THERAS, INC., priority 2022, published 2025).
Where two headings read alike, the source gives them in different places.

Assays:
pERK in NCI-H358 cells = experiment: Cell-based pERK HTRF assay; conditions: 30 min incubation, read-out: pERK in NCI-H358 cell inhibition IC50
Description: pERK assays (Perkin Elmer) were used to determine the effectiveness of compounds of the present disclosure in disrupting KRAS G12C protein/effector signaling in cells.
On Day 1, cells (NCI-H358) were seeded into 96-well plates at 4×10^4 cells/well in complete growth media (RPMI, 10% FBS).
On Day 2, cells were treated with compounds at 0.25% DMSO. The source plate was created with compounds diluted in media at 5-fold the final assay concentration. The compounds were run in a 9-point concentration curve starting at 75 μM, with a 3-fold dilution between concentrations. 20 μL was transferred onto the cell plates (final volume in wells was 100 μL). Plates were harvested after 30 min incubation by aspirating media and adding kit-supplied 1× supplemented lysis buffer to all wells (75 μl per well). Plates were then placed on a plate shaker and incubated at 850 rpm for an additional 30 min.
Antibody mixture solution was prepared by diluting aliquoted d2 and Eu Cryptate antibodies 1:20 in kit supplied detection buffer, then mixed the diluted antibodies solutions (1:1 v:v). 4 μL of this solution was then added to a 384-well detection plate (Perkin Elmer; 6008230).
Samples were homogenized by pipetting up and down and then transferred (16 μL of cell lysates) from the 96-well cell culture plate to two wells of the HTRF 384-well detection plate containing the antibody solution. Plates were centrifuged (524 g for Imin) and allowed to incubate between 4 and 24 h at room temperature. Maximum signal is reached after 4 h incubation time and remains stable over a period of 24 hours. Therefore, readings can be made between 4 and 24 h of incubation. Plates were centrifuged again (524 g for Imin) and analyzed on the En Vision plate reader using the following settings: Excitation 320 nm, Bandwidth 75 nm; Emission 615 nm, Bandwidth 85 nm; Gain 100%; Flashes 100; Lag 60 μs.

[1] = target: T1, GDP-loaded KRAS4b (amino acids 1-169) G12C/C118S protein (Homo sapiens, UniProt P01116, C118S/G12C); experiment: Covalent cysteine 12 modification by MALDI-TOF MS, GDP-loaded KRAS G12C; assay type: binding; conditions: 15 minutes reaction time point
T1 construct: KRAS4b (amino acids 1-169) G12C/C118S protein; made in house
Description: (§1) Reaction: 1 μM of GppNHp-, GTP-, or GDP-loaded KRAS4b (amino acids 1-169) G12C/C118S protein (produced in-house by Protein Expression Laboratory, FNLCR/Leidos Biomed) in 20 mM 4-(2-hydroxyethyl)-1-piperazineethanesulfonic acid (HEPES) buffer containing 150 mM NaCl, 1 mM MgCl2, pH 7.3 was prepared freshly before assay. Ten-μL aliquots of protein were dispensed onto low volume 384-well plate, then 375 nL DMSO, and 25 nL of tested compounds from 5 mM DMSO stocks were added to appropriate wells using ECHO 555 acoustic liquid handler (Labcyte Inc.). For each reaction/assay, three blanks were prepared by mixing 10 μL of protein solution with 400 nL DMSO. The contents of the wells were carefully mixed by aspiration, and then each plate was sealed with an adhesive cover, centrifuged at 2000 g for 1 minute, and kept in the dark at room temperature until 5 min, 15 min, 30 min, or 2 h collections.
(§2) Target pretreatment: Before each assay MALDI target (Bruker MPT 384 ground steel BC) was pre-treated by pipetting on each spot 0.75 μL of saturated sinapinic acid in acetonitrile (ACN).
(§3) Sample preparation: At collection time point, 2 μL of reaction mixtures were pipetted out into 20 μL MALDI matrix solution (saturated solution of sinapinic acid in 1:1 ACN:water solution containing 0.75% trifluoroacetic acid (TFA)) deposited on 384 well polypropylene plate. Resulting solution was mixed by aspiration, centrifuged at 2000 g for 1 minute, then 1 μL aliquots were dispensed on pre-treated MALDI target using Beckman Coulter Biomek FXP 96/384-Span-8 Laboratory Automation Workstation. Finally, the MALDI target was dried under mild vacuum to produce spots with fine crystalline structure.
(§4) Measurements: MALDI-TOF measurements were performed on a Bruker Daltonics rapiflex Tissuetyper TOF-TOF mass spectrometer using linear mode and mass range from 18.6 to 21.6 kDa. Detector gain was set to 3.3× (483 V), sample rate to 5 GS/s, real time smoothing to medium (175 MHz), laser smart beam pattern was set to: “MS Thin Layer M5”, and the laser frequency was 10000 Hz. Spectra were automatically collected using custom Auto Xecute method. Laser power was auto adjusted using fuzzy control. The peak selection range was set to be between 19000 and 21500 Da. Peak evaluation uses half width parameter set to be smaller than 40 Da for processed spectrograms (centroid peak detection; smoothed by SavitzkyGolay algorithm using 7 m/z width and 2 cycles; baseline was subtracted using median algorithm with flatness 1 and median level 0.01). Fuzzy control used Proteins/Oligonucleotides protocol with minimum half width 1/10 times above threshold. Up to 40000 satisfactory shots were collected in 10000 shot steps. Dynamic termination was implemented to finish data collection when peak signal/noise ratio was reaching value of 50.
(§5) Spectra processing: Spectra were smoothed by SavitzkyGolay algorithm using 7 m/z width and three cycles. Centroid peak detection algorithm was used with signal to noise threshold set to 6, relative intensity threshold 4%, peak width 10 m/z and median baseline subtraction using flatness of 1 and median level of 0.01. Peak intensity and area under the peak were evaluated and recorded for all peaks between 19,300 Da and 21,550 Da.
(§6) Calculation of percent modification: Percent modification was calculated as a ratio of peak height for protein modified by compound to sum of peak height of remaining protein plus peak height for protein modified by compound. If multiple modifications were observed each was calculated as a ratio of peak height for given modification versus sum of peak heights for all observed protein species. Data reported in Table 5 are from 15 minutes reaction time point.

[2] = target: T2, Avi-KRAS G12C (1-169) GppNHp/RAF1 RBD-3×FLAG (52-151) (Homo sapiens, UniProt P01116, G12C); experiment: Raf1 RBD-KRAS G12C-GppNHp disruption (protein:protein interaction HTRF assay); assay type: biochemical
T2 construct: Avi-KRAS G12C (1-169) GppNHp/RAF1 RBD-3×FLAG (52-151)
Description: A protein: protein (PPI) interaction Homogeneous Time Resolved Fluorescence (HTRF) assay was used to determine the effectiveness of compounds of the present disclosure in disrupting KRAS G12C protein and effector (RAF1 or PIK3CA) binding.
The HTRF assay used the following reagents and proteins: 50 nM Avi-KRAS G12C Q25A (1-169) GppNHp/3×FLAG-PI3K CA (157-299); 50 nM Avi-KRAS G12C (1-169) GppNHp/RAF1 RBD-3×FLAG (52-151); 35 nM Avi-PI3K RBD-3×FLAG; Assay Buffer: 50 mM Tris pH 7.5, 100 mM NaCl, 5 mM MgCl2, 0.1% BSA, 0.01% Tween 20, 10% DMSO; Bead Buffer: 50 mM Tris pH 7.5, 0.01% Tween 20; Assay volume: 20 μL (384 well plate-low volume format); and Compound titration: 30-0.02 μM, 3× dilution series.
The HTRF assay employed the following protocol:
Compounds were dispensed in assay plate (384-well, Grenier Bione #784075) using Echo (model 555) with dose response settings: 200 nL final volume, titration from 100 μM as a 10-point dilution series. KRAS proteins were prepared in assay buffer, and dispensed on plates, 5 μL per well, then incubated for 1 h at room temperature, with 700 rpm shaking. RAF1 RBD and PI3K RBD CA were prepared in assay buffer, dispensed onto plates, 5 μL per well, and then incubated for 1 h at room temperature, with 700 rpm shaking. Reagent mix was then prepared and dispensed on plates, 10 μL per well, and then incubated for 1 h at room temperature, with 700 rpm shaking.
Plates were analyzed on an Envision plate reader using the following setting: Excitation 320 nm, Bandwidth 75 nm; Emission 615 nm, Bandwidth 85 nm; Gain 100%; Flashes 100; Lag 60 μs. Data was reported as percentage of activity, with DMSO as 100%. Data was plotted and analyzed using Prism 8.

[3] = target: T3, GppNHp-loaded KRAS4b (amino acids 1-169) G12C/C118S protein (Homo sapiens, UniProt P01116, C118S/G12C); experiment: Covalent cysteine 12 modification by MALDI-TOF MS, GppNHp-loaded KRAS G12C; assay type: binding; conditions: 15 minutes reaction time point
T3 construct: KRAS4b (amino acids 1-169) G12C/C118S protein; made in house
Description: as §1, §2, §3, §4, §5, §6

IC50 (pERK in NCI-H358 cells) [nM] | GDP-KRAS G12C percent of modification [1] | IC50 [2] [nM] | GppNHp-KRAS G12C percent of modification [3] | IC50 (pERK in NCI-H358 cells; Homo sapiens, NCI-H358, 0.5 h) [nM] | Compound
≤ 100 | A (percent of modification ≥70%) | ≤ 500 | B (50≤percent of modification <70%) |  | C=CC(=O)N1CC[C@@H](Oc2nc(OC[C@@H]3CC4(CC4)CN3C)nc3c(F)c(-c4ccc(F)c5sc(N)nc45)c(C(F)(F)F)cc23)C1 (atropisomer, axis not shown) [Compound 24]
> 1000 | D (percent of modification <10%) | 5000 to 20000 | D (percent of modification <10%) |  | C=CC(=O)N1CC[C@@H](Oc2nc(OC[C@@H]3CC4(CC4)CN3C)nc3c(F)c(-c4ccc(F)c5sc(N)nc45)c(C(F)(F)F)cc23)C1 (atropisomer, axis not shown) [Compound 25]
 | A (percent of modification ≥70%) | ≤ 500 | C (10%≤modification <50%) | ≤ 100 | C=CC(=O)N1C[C@@H](C)[C@@H](Oc2nc(OC[C@@]34CCCN3C[C@H](F)C4)nc3c(F)c(-c4ccc(F)c5sc(N)nc45)c(C(F)(F)F)cc23)C1 (atropisomer, axis not shown) [Compound 27]
≤ 100 | A (percent of modification ≥70%) | ≤ 500 | C (10%≤modification <50%) |  | C=CC(=O)N1C[C@H](Oc2nc(OC[C@@]34CCCN3C[C@H](F)C4)nc3c(F)c(-c4ccc(F)c5sc(N)nc45)c(C(F)(F)F)cc23)C[C@@H]1C (atropisomer, axis not shown) [Compound 32]
> 1000 | D (percent of modification <10%) | 5000 to 20000 | D (percent of modification <10%) |  | C=CC(=O)N1C[C@H](Oc2nc(OC[C@@]34CCCN3C[C@H](F)C4)nc3c(F)c(-c4ccc(F)c5sc(N)nc45)c(C(F)(F)F)cc23)C[C@@H]1C (atropisomer, axis not shown) [Compound 33]
 | A (percent of modification ≥70%) | ≤ 500 | A (percent of modification ≥70%) | ≤ 100 | C=CC(=O)N1C[C@H](Oc2nc(OC[C@@]34CCCN3C[C@H](F)C4)nc3c(F)c(-c4ccc(F)c5sc(N)nc45)c(C(F)(F)F)cc23)C[C@H]1C (atropisomer, axis not shown) [Compound 37]
100 to 1000 | D (percent of modification <10%) | 500 to 5000 | D (percent of modification <10%) |  | C=CC(=O)N1C[C@H](Oc2nc(OC[C@@]34CCCN3C[C@H](F)C4)nc3c(F)c(-c4ccc(F)c5sc(N)nc45)c(C(F)(F)F)cc23)C[C@H]1C (atropisomer, axis not shown) [Compound 38]
100 to 1000 | C (10%≤modification <50%) | 500 to 5000 | C (10%≤modification <50%) |  | C=CC(=O)N1C[C@@H](C)[C@@H](Oc2nc(OC[C@@]34CCCN3C[C@H](F)C4)nc3c(F)c(-c4ccc(F)c5sc(N)nc45)c(C(F)(F)F)cc23)C1 (atropisomer, axis not shown) [Compound 39]
100 to 1000 | A (percent of modification ≥70%) | ≤ 500 | C (10%≤modification <50%) |  | C=CC(=O)N1CC[C@@H](Oc2nc(OC[C@@]34CCCN3C[C@H](F)C4)nc3c(F)c(-c4ccc(F)c5sc(N)nc45)c(C(F)(F)F)cc23)[C@@H]1C (atropisomer, axis not shown) [Compound 41]
> 1000 | D (percent of modification <10%) | > 20000 | D (percent of modification <10%) |  | C=CC(=O)N1CC[C@@H](Oc2nc(OC[C@@]34CCCN3C[C@H](F)C4)nc3c(F)c(-c4ccc(F)c5sc(N)nc45)c(C(F)(F)F)cc23)[C@@H]1C (atropisomer, axis not shown) [Compound 42]
 | A (percent of modification ≥70%) | ≤ 500 | A (percent of modification ≥70%) | ≤ 100 | C=CC(=O)N1CC[C@@H](Oc2nc(OC[C@@]34CCCN3C[C@H](F)C4)nc3c(F)c(-c4ccc(F)c5sc(N)nc45)c(C(F)(F)F)cc23)C1 (single isomer, unassigned) [Compound 11]
